Read-outs that look alike come from different tables or passages of the source. One block for each molecule: values may come before it.
Assays:
Assay type in all cases: cell-based, human
[1] = tested on: A549 lung cancer cells; assay: MTS cell viability assay, A549; conditions: for EC50: read-out: EC50 (effective concentration that resulted in 50% cell viability)
In short: (§1)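 Cells grown in MEM with 10% FBS and 25 mM HEPES (pH 7.4), seeded at 2-3.5×10³/well and grown 2 days to ~50% confluence. Exposed to compounds for 1 h, washed, then 2 days in fresh medium; or 48 h continuous. MTS 4 h, absorbance 490 nm; viability as percent of solvent control.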

[2] = tested on: H520 lung cancer cells; assay: MTS cell viability assay, H520; conditions: read-out: EC50 (effective concentration that resulted in 50% cell viability)
In short: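 Two exposure schemes were used: a 1 h treatment followed by washing and 2 days' regrowth, and a 48 h continuous treatment. Viability was then measured colorimetrically with MTS reagent (4 h, 490 nm) relative to solvent controls.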

[3] = tested on: DU145 prostate cancer cells; conditions: for EC50: read-out: EC50 (effective concentration that resulted in 50% cell viability)
In short: (§2)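 SK-BR-3 cells grown in MEM, DU145 and PC-3 cells in RPMI-1640, each with 10% FBS and 25 mM HEPES pH 7.4, plated 2 days to ~50% confluence. Exposure to increasing Pt complex or cisplatin/carboplatin concentrations for 1 h (washed, then 2 days recovery) or 48 h continuous. MTS absorbance at 490 nm after 4 h; viability as percent of control.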

[4] = tested on: PC-3 prostate cancer cells; assay: MTS cell viability assay, PC-3; conditions: for EC50: read-out: EC50 (effective concentration that resulted in 50% cell viability)
In short: as §2

[5] = tested on: HCC38 breast cancer cells; assay: MTS cell viability assay, HCC38; conditions: read-out: EC50 (effective concentration that resulted in 50% cell viability)
In short: as §1

[6] = tested on: MCF-7 breast cancer cells; assay: MTS cell viability assay, MCF-7; conditions: for EC50: read-out: EC50 (effective concentration that resulted in 50% cell viability)
In short: as §1

[7] = tested on: MDA-MB-231 breast cancer cells; assay: MTS cell viability assay, MDA-MB-231; conditions: read-out: EC50 (effective concentration that resulted in 50% cell viability)
In short: as §1

[8] = tested on: SK-BR-3 breast cancer cells; assay: MTS cell viability assay, SK-BR-3; conditions: for EC50: read-out: EC50 (effective concentration that resulted in 50% cell viability)
In short: as §2

[9] = tested on: T-47D breast cancer cells; assay: MTS cell viability assay, T-47D
In short: as §1

[10] = tested on: ZR-75-1 breast cancer cells; assay: MTS cell viability assay, ZR-75-1; conditions: read-out: EC50 (effective concentration that resulted in 50% cell viability)
In short: as §1

[11] = MDA-MB-231, 1 h treatment, Table 3
[12] = SK-BR-3, 1 h treatment, Table 3
[13] = 1 h treatment, Table 3, read-out: EC50 (effective concentration that resulted in 50% cell viability)
[14] = 48 h, Table 5, read-out: EC50 (effective concentration that resulted in 50% cell viability)
[15] = ZR-75-1, 1 h treatment, Table 3

Molecule: CC(=O)[O][Pt]([Cl])([Cl])[O]C(C)=O.CCCCCOc1ccnc(-c2cc(OCCCCC)ccn2)c1 [Pt(IV)-5C, [Pt(IV)Cl2(OAc)2(4,4′-dipentoxy-2,2′-bipyridine)]]
EC50 ([1]; A549, 1 h treatment, Table 3): 6.6 ± 0.3 µM
EC50 ([1]; A549, 48 h, Table 5): 2.2 ± 0.1 µM
EC50 ([2]; H520, 1 h treatment, Table 3): 3 ± 1 µM
EC50 ([2]; H520, 48 h, Table 5): 1 ± 0.3 µM
EC50 ([3]; DU145, 1 h treatment, Table 3): 1 ± 1 µM
EC50 ([3]; DU145, 48 h, Table 5): 0.34 ± 0.02 µM
EC50 ([4]; PC-3, 1 h treatment, Table 3): 1.7 ± 0.2 µM
EC50 ([4]; PC-3, 48 h, Table 5): 0.5 ± 0.2 µM
EC50 ([5]; HCC38, 1 h treatment, Table 3): 3 ± 1 µM
EC50 ([5]; HCC38, 48 h, Table 5): 2.1 ± 0.3 µM
EC50 ([6]; MCF-7, 1 h treatment, Table 3): 2.9 ± 0.13 µM
EC50 ([6]; MCF-7, 48 h, Table 5): 2 ± 0.1 µM
EC50 [7, 11]: 1.8 ± 0.1 µM
EC50 ([7]; MDA-MB-231, 48 h, Table 5): 0.26 ± 0.01 µM
EC50 [8, 12]: 1.3 ± 0.6 µM
EC50 ([8]; SK-BR-3, 48 h, Table 5): 0.3 ± 0.03 µM
EC50 [9, 13]: 2.3 ± 0.3 µM
EC50 [9, 14]: 0.248 ± 0.001 µM
EC50 [10, 15]: 1.6 ± 0.1 µM
EC50 ([10]; ZR-75-1, 48 h, Table 5): 0.55 ± 0.07 µM

Molecule: [Pt(IV)Cl2(OAc)2(4,4′-dibutoxy-2,2′-bipyridine)] [Pt(IV)-4C]
effect on cell viability (in words) ([1]; A549, 1 hour treatment, at the concentrations tested (FIG. 8E)): did not have any effect
EC50 ([1]; A549, 1 h treatment, Table 3): > 25 µM
EC50 ([1]; A549, 48 h, Table 5): 14 ± 1 µM
EC50 ([2]; H520, 1 h treatment, Table 3): 13 ± 5 µM
EC50 ([2]; H520, 48 h, Table 5): 2.2 ± 0.1 µM
EC50 ([3]; DU145, 1 h treatment, Table 3): 8 ± 7 µM
EC50 ([3]; DU145, 48 h, Table 5): 0.9 ± 0.2 µM
EC50 ([4]; PC-3, 1 h treatment, Table 3): 5 ± 3 µM
EC50 ([4]; PC-3, 48 h, Table 5): 1.1 ± 0.4 µM
EC50 ([5]; HCC38, 1 h treatment, Table 3): 17 ± 3 µM
EC50 ([5]; HCC38, 48 h, Table 5): 2.1 ± 0.2 µM
effect on cell viability (in words) ([6]; MCF-7, 1 hour treatment, at the concentrations tested (FIG. 8F)): did not have any effect
EC50 ([6]; MCF-7, 1 h treatment, Table 3): > 25 µM
EC50 ([6]; MCF-7, 48 h, Table 5): 2.2 ± 0.1 µM
EC50 [7, 11]: 2.8 ± 0.1 µM
EC50 ([7]; MDA-MB-231, 48 h, Table 5): 1 ± 0.2 µM
EC50 [8, 12]: 4 ± 0.7 µM
EC50 ([8]; SK-BR-3, 48 h, Table 5): 0.44 ± 0.02 µM
EC50 [9, 13]: 10 ± 1 µM
EC50 [9, 14]: 0.33 ± 0.07 µM
EC50 [10, 15]: 2.9 ± 0.3 µM
EC50 ([10]; ZR-75-1, 48 h, Table 5): 0.7 ± 0.2 µM

EC50 ([1]; A549, 1 h treatment, Table 2): 900 ± 200 µM
EC50 ([1]; A549, 1 h treatment, Table 3): 900 ± 200 µM
EC50 ([1]; A549, 48 h, Table 5): 500 ± 100 µM
EC50 ([1]; A549, 48 h treatment, Table 4): 500 ± 100 µM
EC50 ([2]; H520, 1 h treatment, Table 2): 200 ± 17 µM
EC50 ([2]; H520, 1 h treatment, Table 3): 200 ± 17 µM
EC50 ([2]; H520, 48 h, Table 5): 24 ± 2 µM
EC50 ([2]; H520, 48 h treatment, Table 4): 24 ± 2 µM
EC50 ([3]; DU145, 1 h treatment, Table 2): 400 ± 100 µM
EC50 ([3]; DU145, 1 h treatment, Table 3): 400 ± 100 µM
EC50 ([3]; DU145, 48 h, Table 5): 64 ± 8 µM
EC50 ([3]; DU145, 48 h treatment, Table 4): 64 ± 8 µM
EC50 ([4]; PC-3, 1 h treatment, Table 2): 200 ± 20 µM
EC50 ([4]; PC-3, 1 h treatment, Table 3): 200 ± 20 µM
EC50 ([4]; PC-3, 48 h, Table 5): 30 ± 1 µM
EC50 ([4]; PC-3, 48 h treatment, Table 4): 30 ± 1 µM
EC50 ([5]; HCC38, 1 h treatment, Table 2): 300 ± 30 µM
EC50 ([5]; HCC38, 1 h treatment, Table 3): 300 ± 30 µM
EC50 ([5]; HCC38, 48 h, Table 5): 30 ± 8 µM
EC50 ([5]; HCC38, 48 h treatment, Table 4): 30 ± 8 µM
EC50 ([6]; MCF-7, 1 h treatment, Table 2): 900 ± 60 µM
EC50 ([6]; MCF-7, 1 h treatment, Table 3): 900 ± 100 µM
EC50 ([6]; MCF-7, 48 h, Table 5): 34 ± 1 µM
EC50 ([6]; MCF-7, 48 h treatment, Table 4): 35 ± 1 µM
EC50 ([7]; MDA-MB-231, 1 h treatment, Table 2): 50 ± 4 µM
EC50 [7, 11]: 50 ± 4 µM
EC50 ([7]; MDA-MB-231, 48 h, Table 5): 21 ± 3 µM
EC50 ([7]; MDA-MB-231, 48 h treatment, Table 4): 21 ± 3 µM
EC50 ([8]; SK-BR-3, 1 h treatment, Table 2): 420 ± 80 µM
EC50 [8, 12]: 420 ± 80 µM
EC50 ([8]; SK-BR-3, 48 h, Table 5): 23 ± 8 µM
EC50 ([8]; SK-BR-3, 48 h treatment, Table 4): 23 ± 6 µM
EC50 ([9]; 1 h treatment, Table 2, read-out: EC50 (effective concentration that resulted in 50% cell viability)): 900 ± 100 µM
EC50 [9, 13]: 900 ± 100 µM
EC50 [9, 14]: 35 ± 6 µM
EC50 ([9]; 48 h treatment, Table 4, read-out: EC50 (effective concentration that resulted in 50% cell viability)): 35 ± 6 µM
EC50 ([10]; ZR-75-1, 1 h treatment, Table 2): 260 ± 10 µM
EC50 [10, 15]: 260 ± 10 µM
EC50 ([10]; ZR-75-1, 48 h, Table 5): 30 ± 8 µM
EC50 ([10]; ZR-75-1, 48 h treatment, Table 4): 30 ± 8 µM
Molecule: [NH2][Pt]([NH2])([Cl])[Cl] [CDDP, Cisplatin, reference compound]
effect on cell viability (in words) ([3]; DU145, 1 hour treatment (FIG. 8A, top), up to 1 mM carboplatin, 100 μM Pt(IV)-1C, 50 μM Pt(IV)-2C): concentration dependent decrease in cell viability
anti-proliferative activity compared to cisplatin (in words) ([3]; DU145, one and 48 hours treatment (FIG. 8H)): concentration dependent decreased in cell viability
anti-proliferative activity compared to cisplatin (in words) ([4]; PC-3, one and 48 hours treatment (FIG. 8I)): concentration dependent decreased in cell viability
anti-proliferative activity compared to cisplatin (in words) ([8]; SK-BR-3, one and 48 hours treatment (FIG. 8G)): concentration dependent decreased in cell viability
